Values quoted from earlier work, collected in patent US20070265345A1, “Novel Biphenyl Compounds And Their Use” (SMITHKLINE BEECHAM CORPORATION, priority 2004, published 2007).

test system: A549 cells

Going from O=c1[nH]cc(F)c(=O)[nH]1 [5-fluorouracil] to COc1cccc2c1C(=O)c1c(O)c3c(c(O)c1C2=O)C[C@@](O)(C(=O)CO)C[C@@H]3O[C@H]1C[C@H](N)[C@H](O)[C@H](C)O1 [doxorubicin], the GI50 falls from 1000 nM to 63 nM (16-fold).

Compared with NC(=O)NO [hydroxyurea], CC(=O)O[C@H]1C(=O)[C@@]2(C)[C@H]([C@H](OC(=O)c3ccccc3)[C@]3(O)C[C@H](OC(=O)[C@H](O)[C@@H](NC(=O)c4ccccc4)c4ccccc4)C(C)=C1C3(C)C)[C@]1(OC(C)=O)CO[C@@H]1C[C@@H]2O [paclitaxel] is far lower in GI50: 500000 nM for the first, 4 nM for the second.
